# From US20230110899A1, “NOVEL COMPOSITIONS FOR TREATMENT OF CORONAVIRUS DISEASE” (priority 2020, published 2023)
# “And” between values parts separate entries of the source, which are not always exact repeats. Equal entries are not always repeated.
# Key:
# [1] = target: T1, cytosolic phospholipases (cPLA2) (Homo sapiens, UniProt P47712); details: cited from earlier work
# T1 sequence (P47712 1-749): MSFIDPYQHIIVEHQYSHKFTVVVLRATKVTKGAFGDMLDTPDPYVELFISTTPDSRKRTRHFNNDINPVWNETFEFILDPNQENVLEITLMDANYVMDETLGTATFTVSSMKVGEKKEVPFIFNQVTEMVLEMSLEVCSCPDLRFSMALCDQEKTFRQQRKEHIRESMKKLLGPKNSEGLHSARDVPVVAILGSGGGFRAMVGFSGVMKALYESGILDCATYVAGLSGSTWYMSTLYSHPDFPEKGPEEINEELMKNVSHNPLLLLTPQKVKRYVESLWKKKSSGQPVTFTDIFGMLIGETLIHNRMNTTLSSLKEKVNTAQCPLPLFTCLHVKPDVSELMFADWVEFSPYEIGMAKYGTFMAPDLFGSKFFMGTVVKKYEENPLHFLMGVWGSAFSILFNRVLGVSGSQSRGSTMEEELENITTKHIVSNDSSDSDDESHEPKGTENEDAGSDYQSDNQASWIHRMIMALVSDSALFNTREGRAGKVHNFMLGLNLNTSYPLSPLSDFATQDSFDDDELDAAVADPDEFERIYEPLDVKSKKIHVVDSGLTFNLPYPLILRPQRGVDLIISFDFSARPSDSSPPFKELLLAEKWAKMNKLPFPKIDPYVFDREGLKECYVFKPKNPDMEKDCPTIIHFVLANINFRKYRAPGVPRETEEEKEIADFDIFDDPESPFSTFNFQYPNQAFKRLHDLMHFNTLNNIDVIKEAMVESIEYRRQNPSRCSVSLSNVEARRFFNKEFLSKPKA
# [2] = system: adult CF patients experiencing pulmonary exacerbation; details: cited from earlier work
# [3] = system: MERS-CoV clinical isolate; details: viral spike (S) protein expression, infected Vero cells, IFA; read-out: 50% inhibitory concentration (IC50); cited from earlier work
# [4] = system: SARS-CoV-2 coronavirus; experiment: SARS-CoV-2 plaque reduction assay in Vero E6 cells; assay type: cell-based; details: for Mean PFU/well: n=3
# [5] = system: allergen-sensitized mice; details: mouse, in vivo; cited from earlier work
# [6] = Plasma and lung fenretinide exposure, oral and inhaled (Example 3); assay type: in vivo, C57BL/6 mice; details: nebulization of 0.65 mg/mL for 30 or 60 min; calculated, confirmed by analysis of lung tissue
# [7] = system: Zika virus; details: in vitro, by targeting nonstructural protein 5; cited from earlier work
# [8] = system: ERK1/2; details: macrophages pretreated prior to S. suis infection, vs nontreated infected macrophages; cited from earlier work
# [9] = system: Pseudomonas aeruginosa; details: Cftr.KO mice; cited from earlier work
# [10] = system: Spinal Cord Injury (SCI); details: oral administration; cited from earlier work
# [11] = system: Dengue; details: cited from earlier work
# [12] = system: LPS induced ARDS mouse model; experiment: LPS induced ARDS mouse model (tracheal instillation of 60 μg of LPS), oral and inhaled; assay type: in vivo, C57BL/6 mice; details: for blood oxygen saturation (SpO2): 72 h; for blood reticulocyte count: vs LPS negative control
# [13] = system: Dengue infection; details: lethal mouse model; cited from earlier work
# [14] = system: Streptococcus suis; details: acute S. suis infection; cited from earlier work
# [15] = system: Vero E6 cells; details: up to 40 μM concentrations
# [16] = inhaled fenretinide 1.8 μg/kg, 72 hours
# [17] = inhaled fenretinide 3.6 μg/kg, 72 hours
smiles,measurement,setting,value
"CC1=C(/C=C/C(C)=C/C=C/C(C)=C/C(=O)Nc2ccc(O)cc2)C(C)(C)CCC1 [Fenretinide, 4-hydroxyphenyl retinamide]",activity of cytosolic phospholipases (cPLA2),[1],inhibits the activity of cytosolic phospholipases
same,"plasma levels of IL-6, IL-8, IL-10 and neutrophils count",[2]; at the onset of the PEx episode,appeared to improve
same,lipidomic markers,[2]; subgroup with pulmonary exacerbation (PEx),normalized the lipidomic markers in a dose-response manner
same,IC50,[3],2800 nM
same,IC50,"[4]; Severe acute respiratory syndrome coronavirus 2, Vero C1008, linear regression analysis (FIG. 1), R2=0.92, read-out: IC50, 50% inhibition of virus survival",1570 nM
same,% survival,[4]; fenretinide 0.625 μM,80.5%
same,"Plaque forming unit counts, Wells 1-3 (individual counts/well)",[4]; fenretinide 0.625 μM,21 and 19 and 22
same,Mean PFU/well,[4]; fenretinide 0.625 μM,20.7 PFU/well
same,% survival,[4]; fenretinide 1.25 μM,75.3%
same,"Plaque forming unit counts, Wells 1-3 (individual counts/well)",[4]; fenretinide 1.25 μM,14 and 31 and 13
same,Mean PFU/well,[4]; fenretinide 1.25 μM,19.3 PFU/well
same,% survival,[4]; fenretinide 2.5 μM,24.7%
same,"Plaque forming unit counts, Wells 1-3 (individual counts/well)",[4]; fenretinide 2.5 μM,6 and 3 and 10
same,Mean PFU/well,[4]; fenretinide 2.5 μM,6.3 PFU/well
same,% survival,[4]; fenretinide 5 μM,0.0%
same,"Plaque forming unit counts, Wells 1-3 (individual counts/well)",[4]; fenretinide 5 μM,0
same,Mean PFU/well,[4]; fenretinide 5 μM,0.0 PFU/well
same,infiltration of inflammatory cells to the airways,[5],complete block of infiltration of inflammatory cells to the airways
same,effective fenretinide dose delivered to the lungs (local lung concentration),[6],1 to 3 µM
same,activity against Zika virus,[7],potent activity
same,ERK1/2 activation,[8],significant reduction in ERK1/2 activation
same,pulmonary load of Pseudomonas aeruginosa,[9],significant decrease in the pulmonary load of Pseudomonas aeruginosa
same,locomotor recovery,[10],improved locomotor recovery
same,antiviral activity against Dengue fever disease,[11],potent antiviral activity
same,blood oxygen saturation (SpO2),[12]; inhaled fenretinide 1.8 μg/kg,"partially, but significantly, alleviated the reduction of blood oxygen saturation"
same,lung protein concentration,[12]; [16],reduced the lung protein concentration
same,blood reticulocyte count,[12]; [16],significantly increased reticulocyte counts
same,myeloperoxidase (MPO) activity in the BALF,"[12]; inhaled fenretinide 1.8 μg/kg, 72 hours, statistically significant vs negative control",reduced MPO activity
same,blood oxygen saturation (SpO2),[12]; inhaled fenretinide 3.6 μg/kg,"partially, but significantly, alleviated the reduction of blood oxygen saturation"
same,lung protein concentration,[12]; [17],reduced the lung protein concentration
same,blood reticulocyte count,[12]; [17],significantly increased reticulocyte counts
same,protection against Dengue infection,[13],can protect against Dengue infection
same,survival,[14],significantly improved their survival
CCC(CC)COC(=O)[C@H](C)N[P@](=O)(OC[C@H]1O[C@@](C#N)(c2ccc3c(N)ncnn23)[C@H](O)[C@@H]1O)Oc1ccccc1 [Remdesivir],cytopathic effect,[15],No cytopathic effect
same,% virus survival,[4]; remdesivir 0.625 μM,90.9%
same,"Plaque forming unit counts, Wells 1-3 (individual counts/well)",[4]; remdesivir 0.625 μM,25 (2×) and 20
same,Mean PFU/well,[4]; remdesivir 0.625 μM,23.3 PFU/well
same,% virus survival,[4]; remdesivir 1.25 μM,42.9%
same,"Plaque forming unit counts, Wells 1-3 (individual counts/well)",[4]; remdesivir 1.25 μM,10 and 11 and 12
same,Mean PFU/well,[4]; remdesivir 1.25 μM,11.0 PFU/well
same,"Plaque forming unit counts, Wells 1-3 (individual counts/well)",[4]; remdesivir 2.5 μM,5 (2×) and 2
same,Mean PFU/well,[4]; remdesivir 2.5 μM,4.0 PFU/well
same,% virus survival,[4]; remdesivir 5 μM,2.6%
same,"Plaque forming unit counts, Wells 1-3 (individual counts/well)",[4]; remdesivir 5 μM,1 (2×) and 0
same,Mean PFU/well,[4]; remdesivir 5 μM,0.7 PFU/well
same,% virus survival,[4]; remdesivir 10 μM,0%
same,"Plaque forming unit counts, Wells 1-3 (individual counts/well)",[4]; remdesivir 10 μM,0
same,Mean PFU/well,[4]; remdesivir 10 μM,0.0 PFU/well
same,% virus survival,[4]; remdesivir 20 μM,0.0%
same,"Plaque forming unit counts, Wells 1-3 (individual counts/well)",[4]; remdesivir 20 μM,0
same,Mean PFU/well,[4]; remdesivir 20 μM,0.0 PFU/well
same,% virus survival,[4]; remdesivir 40 μM,0.0%
same,"Plaque forming unit counts, Wells 1-3 (individual counts/well)",[4]; remdesivir 40 μM,0
same,Mean PFU/well,[4]; remdesivir 40 μM,0.0 PFU/well
